Patent US20210085630A1, “PHARMACEUTICAL COMPOSITION AND USE THEREOF IN PREPARING DRUG FOR TREATING TUMOR MULTI-DRUG RESISTANCE” (SICHUAN JIUZHANG BIOLOGICAL SCIENCE AND TECHNOLOGY CO., LTD., priority 2018, published 2021)

Key:
[1] = system: drug-resistant A549 lung cancer cell lines; assay: Reversal of gemcitabine resistance in drug-resistant A549 cells (MTT); format: cell-based, human; conditions: test drug 30 μg/ml; for Reversal index: IC50 before reversal/IC50 after reversal, drug-resistant A549
Procedure: The culture and experimental methods of cells were the same as above. In the experiment, there are following groups: drug-resistant cell negative group, drug-resistant cells+test drug group 1 (30 μg/ml), drug-resistant cells+test drug group 2 (30 μg/ml), drug-resistant cells+test drug group 3 (30 μg/ml), drug-resistant cells+test drug group 4 (30 μg/ml), drug-resistant cells+test drug group 5 (30 μg/ml), drug-resistant cells+test drug group 6 (30 μg/ml). Each test drug group was respectively added with different concentrations of gemcitabine, each concentration including 3 replicate wells, and the OD value of each well was measured, to observe whether the cytotoxicity was shown. Each test drug and gemcitabine were respectively used to act on drug resistant cells, so as to compare with the effects of gemcitabine administrated alone on drug-resistant cells, and the IC50 value of gemcitabine against drug-resistant cell lines was calculated, as well as the IC50 value of each test drug after reversing drug-resistant cell lines. Reversal index=IC50 value before reversal/IC50 value after reversal.

PD-1/PD-L1 [2] = assay: PD-1/PD-L1 expression rate (immunohistochemical SP method), drug-resistant B16 melanoma tumor tissue; format: in vivo; conditions: transplanted tumor tissues of drug-resistant B16 melanoma in mice, Example 3 regimen
Text: (§1) The positive expression rate of PD-1/PD-L1 in tumor tissues was detected by immunohistochemical SP method.

[3] = system: CD4+T and CD8+T lymphocytes; assay: Number of CD4+T and CD8+T cells (immunofluorescence), drug-resistant Lewis lung cancer transplanted tumor; format: in vivo; conditions: transplanted tumor of drug-resistant Lewis lung cancer in mice, average of 6 high power fields
Procedure: (§2) The number of CD4+T and CD8+T lymphocytes was analyzed by immunofluorescence staining, and the average number of CD4+T and CD8+T cells infiltrated in 6 high power fields was counted.

PD-1/PD-L1 [4] = assay: PD-1/PD-L1 expression rate in tumor tissues of Opdivo-resistant B16 melanoma mice; format: in vivo; conditions: tumor tissues of drug-resistant (Opdivo) B16 melanoma mice
Text: as §1

PD-1/PD-L1 [5] = assay: PD-1/PD-L1 expression rate in tumor tissues of Opdivo-resistant Lewis lung cancer mice; format: in vivo; conditions: tumor tissues of drug-resistant (Opdivo) Lewis lung cancer mice
Text: as §1

[6] = system: CD4+T and CD8+T lymphocytes; assay: Number of CD4+T and CD8+T cells in Opdivo-resistant B16 melanoma mice; format: in vivo; conditions: drug-resistant (Opdivo) B16 melanoma mice, average of 6 high power fields
Procedure: as §2

[7] = system: multi-drug resistant Lewis lung cancer; assay: Tumor weight and inhibition rate, transplanted multi-drug resistant Lewis lung cancer; format: in vivo, mice; conditions: multi-drug resistant Lewis lung cancer mice; test drug 30 mg/kg i.p. 5 days, then gemcitabine 300 mg/kg or dacarbazine 60 mg/kg every other day
Procedure: Lewis lung cancer cell lines were induced by the increased gradient concentration of dacarbazine and gemcitabine, and established by clone screening, then cultured without drug before the experiment.
After the drug was removed from the drug-resistant cell lines, the cell concentration was adjusted to 1×10^7/ml with the culture medium. 1×10^7/ml of cells were subcutaneously injected into the right armpit of mice, 0.1 ml per mouse.
After the average diameter of tumor reached […], the mice were randomly divided into test drug group 1, test drug group 2, test drug group 3, test drug group 4, test drug group 5, test drug group 6, positive drug group, and negative group, respectively.
Test drug group: the test drug group was first intraperitoneally injected, once a day, 30 mg/kg/time, for 5 consecutive days; administration was stopped, and the positive drug was given by intraperitoneal injection on the next day; wherein the positive drug dacarbazine was administrated once every other day, 60 mg/kg/time; wherein the positive drug gemcitabine was given once every other day, 300 mg/kg/time.
Positive drug group: positive drug dacarbazine was given once every other day, 60 mg/kg/time; positive drug gemcitabine was given once every other day, 300 mg/kg/time.
Negative group: normal saline was intraperitoneally injected, once a day, for 15 consecutive days.
After completion of administration, the experiment was stopped, and the mice were killed by cervical dislocation and weighed. The tumor was stripped and weighed, to calculate the tumor inhibition rate.

SMILES: O=C(/C=C/c1ccc(O)c(O)c1)O[C@@H]1C[C@](O)(C(=O)O)C[C@@H](O)[C@H]1O [Chlorogenic acid, chlorogenic acid]
- Reversal index [1]: 1.13
- reversal effect on the drug-resistant A549 cell lines (in words) [1]: no significant reversal effect
- Expression rate of PD-1/PD-L1, Positive PD-L1 (PD-1/PD-L1 [2]): 72.26%
- CD4 + T cells (number) [3]: 80.63 ± 5.08
- CD8 + T cells (number) [3]: 106.62 ± 6.88
- Expression rate of PD-1/PD-L1, Positive PD-L1 (PD-1/PD-L1 [4]): 83.41%
- Expression rate of PD-1/PD-L1, Positive PD-L1 (PD-1/PD-L1 [5]): 70.36%
- CD4 + T cells (number) [6]: 74.63 ± 6.35
- CD8 + T cells (number) [6]: 89.42 ± 2.52
- Tumor weight [7]: 1.92 ± 0.69 g
- Tumor-inhibition rate (%) [7]: 18.64%

SMILES: O=C(/C=C/c1ccc(O)cc1)O[C@@H]1C[C@](O)(C(=O)O)C[C@@H](O)[C@H]1O [Coumaroylquinic acid, coumaroylquinic acid]
- Reversal index [1]: 1.10
- reversal effect on the drug-resistant A549 cell lines (in words) [1]: no significant reversal effect
- Expression rate of PD-1/PD-L1, Positive PD-L1 (PD-1/PD-L1 [2]): 73.39%
- CD4 + T cells (number) [3]: 78.75 ± 6.39
- CD8 + T cells (number) [3]: 98.53 ± 4.98
- Expression rate of PD-1/PD-L1, Positive PD-L1 (PD-1/PD-L1 [4]): 82.87%
- Expression rate of PD-1/PD-L1, Positive PD-L1 (PD-1/PD-L1 [5]): 71.89%
- CD4 + T cells (number) [6]: 75.09 ± 5.23
- CD8 + T cells (number) [6]: 88.26 ± 5.36
- Tumor weight [7]: 2.15 ± 0.72 g
- Tumor-inhibition rate (%) [7]: 8.90%
